Data on three compounds can be found in patent US20250161196A1, “Antioxidant Compositions” (THE BOOTS COMPANY PLC, priority 2022, published 2025).

This assay can be described thus: Total Antioxidant Capacity (TAC) assay, Cell Biolabs kit, copper ion reduction, absorbance at 490 nm. The format is biochemical. To be noted: for Total Antioxidant Capacity (TAC): absorbance 490 nm, triplicate; for TAC of the individual antioxidant agent: Table 1 / FIG. 1, single agent alone. The method, then:
Total antioxidant capacity (TAC) was determined using a kit (Cell Biolabs, Inc) as follows; the test samples were diluted in water and a buffer to reach a final antioxidant agent to buffer ratio ranging from 1:1 to 1:1,000,000. 20 ul of test sample or control (ascorbic acid or green tea) were added to the wells of 96 well plate, followed by 180 μL of 1× Reaction Buffer (provided with the kit). The absorbance of the reaction mix in each well was measured at 490 nm to get an initial reading. 50 μL of the 1× Copper Ion Reagent (provided with the kit) were added to each well to initiate the reaction. The reaction was allowed to carry on for 5 minutes on an orbital shaker and 50 μL of 1× Stop Solution (provided with the kit) added to each well to terminate the reaction. The colour change was assessed using a plate reader at 490 nm.
The stronger the colour change at the end of the reaction, the higher the spectrophotometric value, and the higher the antioxidant capacity of the antioxidant agents.
21 antioxidant compounds were tested in triplicate at antioxidant: buffer ratios ranging from 1:1 to 1:1,000,000. […]

Setting [1] is: Antioxidant:Buffer 1:1 (concentration 1).
Setting [2] is: Antioxidant:Buffer 1:10 (concentration 0.1).
[3] abbreviates: Antioxidant:Buffer 1:100 (concentration 0.01).

Take `COc1cc(/C=C/C(=O)O)ccc1O` [Ferulic acid]: the “TAC of the individual antioxidant agent” value is recorded as 1.583. Also, under setting [1], the “Total Antioxidant Capacity (TAC)” value turned out to be 1.911. In addition, the “Total Antioxidant Capacity (TAC)” value under setting [2] is listed as 1.808. Moreover, the “Total Antioxidant Capacity (TAC)” value under setting [3] came to 1.991.
For the compound `O=C1O[C@H]([C@@H](O)CO)C(O)=C1O` [Ascorbic Acid (Control), Ascorbic Acid, reference compound], the “Total Antioxidant Capacity (TAC)” value came out at 2.6 under setting [1], 1.6 under setting [2] and 0.7 under setting [3].
Turning to `COc1cc2c(cc1O)CCC(C)(C)O2` [Dimethylmethylmethoxy chromanol, Dimethylmethoxy chromanol], the “TAC of the individual antioxidant agent” value was 1.671. The “Total Antioxidant Capacity (TAC)” value under setting [1] was determined as 1.839. Besides, under setting [2], the “Total Antioxidant Capacity (TAC)” value was 1.807. Moreover, the “Total Antioxidant Capacity (TAC)” value under setting [3] is reported as 1.824.
